“Also recorded” adds a separate entry of the source. Read-outs that look alike come from different tables or passages of the source.
What was measured:
H. pylori strain 26695 = assay: MIC, broth microdilution test, strain 26695; type: cell-based; settings: Helicobacter pylori
Method: (§1) The in vitro anti-bacterial activity of 2-OH-1,4-NQ compounds was assessed against the 26695 and SS1 strains of H. pylori. DMSO was used as control in all experiments.
(§2) Disc diffusion tests were performed in triplicate, including a DMSO-only control on each plate, as specified in the electronic supplementary material. Minimal inhibitory concentrations (MICs) were determined using a broth microdilution test in 24-well microtitre plates. For test inocula, an overnight preculture of H. pylori strains 26695 and SS1 was diluted to an OD600 of approximately 0.1 and 0.5 ml of this suspension was transferred to each well. Ten microlitres of twofold serial dilutions of each compound in DMSO, ranging in concentration from 0.625 to 20 µg ml^−1, were added and the covered plates were incubated for 24 h at 37°C with orbital shaking at 140 r.p.m. under microaerophilic conditions. The MIC was determined as the lowest compound concentration resulting in full growth inhibition after 24 h of incubation. All the tests were done in triplicate, including cell-free and DMSO-only controls.

AGS cells [1] = assay: cytotoxicity, LDH release; type: cell-based, human; settings: 0.78 to 50 μg ml^−1, 24 h
Method: Cytotoxicity of the 2-OH-1,4-NQ derivatives was assessed by measuring lactate dehydrogenase (LDH) release following manufacturer's instructions (Cytotoxicity Detection Kit; Roche Applied Sciences). Briefly, AGS cells (human gastric adenocarcinoma cell line; ATCC Catalog no. CRL-1739TM) were cultured in Ham's F-12 K medium containing 1% of FBS. A total of 3 × 10^4 cells were added per well in a sterile 96-well tissue culture plate. Cells were then treated with different doses of 2-OH-1,4-NQ compounds ranging from 0.78 to 50 μg ml^−1. After a 24 h incubation at 37°C (5% CO2, 90% humidity), the microplates were centrifuged at 250g for 10 min, and the supernatants were carefully removed and transferred into optically clear 96-well microplates (Greiner Bio-One). The dye solution containing iodotetrazolium chloride and sodium lactate was then added to each well to quantify the amount of LDH released into the extracellular medium. LDH was quantified by measuring the A490 using a PowerWave Microplate Spectrophotometer (BioTek).

H. pylori strain SS1 [2] = assay: mouse infection and treatment, gastric colonization; type: in vivo, Helicobacter pylori; settings: NMRI mice, orogastric three times a day, 0.375 mg mouse day^−1 (17 mg kg^−1), one week
Method: (§3) NMRI-specific pathogen-free mice (Charles River Laboratories) were orogastrically inoculated with 10^8 CFU of the H. pylori mouse-adapted strain SS1, prepared in 100 μl of peptone broth. Four groups of six to eight mice were infected by H. pylori strain SS1. Earlier experiments have established that after one week, colonization of mice is fully established. A negative control group of five mice was inoculated with peptone broth alone and was not colonized by H. pylori. One week after infection, three groups of mice were treated orogastrically three times a day with 500 µl of either compound 010-C, 010-E or 010-I dissolved in 2% β-cyclodextrin at 0.25 mg ml^−1 (0.375 mg mouse d^−1) during one week. As a control, the fourth group of mice was treated orogastrically three times a day by the same amount of 2% β-cyclodextrin (17.6 mM), the vehicle of the compounds. […] This average size is in agreement with the average size of β-cyclodextrin particles that self-aggregate in water at a concentration of 12 mM [39]. After treatment, viable H. pylori cells, colonizing the mouse stomach, were enumerated by culture of serial dilutions of homogenized tissue on blood agar plates containing bacitracin (200 μg ml^−1) and nalidixic acid (10 μg ml^−1) as in [40].

HpThyX [3] = target: T1, HpThyX (Helicobacter pylori, UniProt O26061); assay: tritium release (deprotonation) assay of [5-3H]dUMP; type: biochemical; settings: for remaining activity at 100 µM: 20 min, semi-quantitative deprotonation assay, lower = stronger inhibition, read-out: inhibition against ThyX (% remaining activity relative to control); for dTMP-forming activity: quantitative tritium release assay, 100 μM compound, 10 μM ThyX enzyme
T1 construct: His6; made in house; host or cells: Escherichia coli BL21 (plasmid pGL2, pBAD promoter)
T1 sequence (O26061 whole entry): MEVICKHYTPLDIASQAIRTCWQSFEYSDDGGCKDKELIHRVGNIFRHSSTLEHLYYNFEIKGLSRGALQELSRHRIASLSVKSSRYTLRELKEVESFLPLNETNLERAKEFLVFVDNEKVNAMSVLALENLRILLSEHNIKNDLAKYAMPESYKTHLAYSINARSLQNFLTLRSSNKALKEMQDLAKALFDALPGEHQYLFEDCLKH
Method: (§4) HpThyX activity was assessed by measuring either deprotonation of [5-^3H]dUMP or NAPDH oxidation activities.
In the tritium release (deprotonation) assays, typical reactions contained 10 mM MgCl2, 10% (v/v) glycerol, 500 µM FAD, 2 mM NADPH, 1 mM CH2H4Folate and 10 mM β-mercaptoethanol in 50 mM HEPES (pH 8). Different concentrations of dUMP were also included in the reaction mixtures. The specific activity of tritiated [5-^3H]dUMP (diammonium salt) stock was 15–30 Ci mmol^−1 (Moravek Biochemicals, CA, USA). 2-OH-1,4-NQ derivatives were prepared at 100 µM in 1% DMSO. Reactions were initiated by adding the enzyme (10 µM) and were stopped after 20 min incubation at 37°C.

AGS cells [4] = assay: mitotoxicity, resazurin reduction; type: cell-based, human; settings: for mitotoxicity: 0.78 to 50 μg ml^−1, 4 h treatment; for effect on mitochondrial metabolism: low concentrations, resazurin reduction
Method: Mitochondrial toxicity (mitotoxicity) was assessed by measuring resazurin (7-hydroxy-3H-phenoxazin-3-one 10-oxide) reduction by following absorption changes at 570 nm (Mitochondrial Viability Assay; Abcam). Resazurin is an indicator dye that reports on oxidation–reduction reactions taking place in the mitochondria of living cells. AGS cells (≅2.5 × 10^5cells well^−1) cultured in a DMEM galactose/glutamine-supplemented medium were seeded in sterile white-walled 96-well clear-bottom microplates and treated for 4 h with different doses of 2-OH-1,4-NQ compounds ranging from 0.78 to 50 μg ml^−1. Addition of the stain solution was followed by a further 4 h incubation at 37°C (5% CO2, 90% humidity) and A570 was measured. Rotenone, an inhibitor of the mitochondrial respiratory chain complex I, was used as a positive control.

[5] = tolerance of orogastric treatment in infected mice; type: in vivo, NMRI mice; settings: orogastric three times a day, 0.375 mg mouse day^−1, one week
Method: as §3

H. pylori strain SS1 [6] = assay: MIC, broth microdilution test, strain SS1; type: cell-based; settings: Helicobacter pylori, 24 h, read-out: minimal inhibitory concentration (MIC) strain SS1
Method: as §1, §2

HpThyX [7] = target: T1, HpThyX; assay: NADPH oxidation assay; type: biochemical; settings: estimated from slope of IC50 versus dUMP concentration
Method: as §4
NADPH oxidation assays were performed at 37°C in 96-well plates (Greiner Bio-One). One hundred microlitres of reaction mixture contained HEPES 50 mM (pH 8.6), NaCl 150 mM, FAD 50 µM, β-mercaptoethanol 1.43 mM, NADPH 500 µM and 10 µM of purified HpThyX. dUMP and 2-OH-1,4-NQ concentrations were varied across 12.5–200 µM and 0.3–100 µM, respectively. Microtitre plates were prepared and transferred to the microplate reader Chameleon II (Hidex). The reactions were started by automatically injecting NADPH into individual wells and ThyX activity was determined by following a decrease in absorbance at 340 nm. A molar extinction coefficient of 6220 M^−1 cm^−1 at 340 nm (ε340) was used to quantify NADPH oxidation. Samples with added DMSO and enzyme-free reactions were used as positive and negative controls, respectively.

H. pylori 26695 = assay: bactericidal activity, viable counts (CFU) in liquid culture; type: cell-based, Helicobacter pylori; settings: exposure up to 24 h, replating on solid media, listed as C8-C1
Method: To determine the bactericidal activity of C8-C1 against H. pylori, liquid BHI medium was inoculated with an overnight culture of H. pylori 26695 at an initial OD600 of 0.1. C8-C1 or chloramphenicol, used as bacteriostatic control, were added after 4 h of culture time at final concentrations of 5 and 30 µg ml^−1. To determine the viable counts of surviving bacteria (colony forming units, CFU), aliquots of culture were then plated in triplicate on blood agar plates after 3 and 24 h exposure.

[8] = tested on: H. pylori strains 26695 and SS1; assay: disc diffusion test; type: cell-based, Helicobacter pylori; settings: 10 μg per disc, 72 h
Method: as §2
Figure S2. Disk diffusion antibiograms of H. pylori strains 26695 (A) and SS1 (B) with the 2-OH-1,4-NQ compounds. To perform these disc diffusion tests, an overnight culture of the H. pylori strain was diluted to an OD600 ≈ 0.01. Blood agar plates were flooded with 2 ml of the diluted suspension. […] The diameters of each growth inhibition zone were measured on the Petri dish. […]
subtracting the disc diameter (6 mm) from the measured zone. […]

[9] = 26695, 24 h, full growth inhibition, read-out: minimal inhibitory concentration (MIC) strain 26695
[10] = 26695, 24 h, value in brackets, read-out: minimal inhibitory concentration (MIC) strain 26695

SMILES	MIC (H. pylori strain 26695; [9]) [µg/mL]	MIC (H. pylori strain 26695; [10]) [µM]	cytotoxicity (AGS cells [1])	decrease in the colonization loads (geometric means) versus vehicle (H. pylori strain SS1 [2]) [log]	decrease in the colonization loads versus vehicle (H. pylori strain SS1 [2]) [fold]	remaining activity at 100 µM (HpThyX [3]) [%]	dTMP-forming activity (HpThyX [3])	mitotoxicity (AGS cells [4])	effect on mitochondrial metabolism (AGS cells [4])	tolerance in mice [5]	effect on body or stomach weight ([5]; data not shown)	MIC (H. pylori strain SS1 [6]; full growth inhibition) [µg/mL]	MIC (H. pylori strain SS1 [6]; value in brackets) [µM]	Ki (HpThyX [7]) [nM]	kind of anti-microbial activity / viable cells after exposure (H. pylori 26695)	MIC (H. pylori strain 26695; liquid cultures, strains 26695 and SS1 not distinguished, read-out: MIC) [µg/mL]	activity in disc diffusion tests [8]
CCCCC1=C(O)C(=O)c2ccccc2C1=O [010-I]	10	43.4	non-cytotoxic	1.22	17	64.3	suppressed the dTMP-forming activity	non-mitotoxic	activated the mitochondrial metabolism	tolerated in mice	None of the aforementioned treatments affected either the body or stomach weight	10	43.4	258			
COc1ccc(CC2=C(O)C(=O)c3ccccc3C2=O)cc1 [007-A, 2-hydroxy-3-(4-methoxybenzyl)-1,4-naphthoquinone]	10	34	non-cytotoxic			38.5	suppressed the dTMP-forming activity	non-mitotoxic	activated the mitochondrial metabolism			10	34	367	no viable cells were recovered; also recorded: bactericidal		
O=C1C(Cl)=C(Nc2ccc(F)cc2)C(=O)c2ccccc21 [010-G]	0.625	2.07	cytotoxic			21.1						0.625	2.07			~0.625	inactive
